Measured values: PubChem BioAssay (NCI)
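Interpolation was linear, between the two tested concentrations surrounding the appropriate level; five concentrations were tested over 48 hours in 96-well plates. At the GI50, growth is halved. Definition used: TGI = concentration required for complete inhibition of growth.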

Legend:
Experiment in all cases: inhibition of tumour cell growth, NCI panel, 48 h
DLD-1 colon = tested on: DLD-1 colon
HS 578T breast = tested on: HS 578T breast
LXFL 529 NSCLC = tested on: LXFL 529 NSCLC
MDA-N = tested on: MDA-N
NCI/ADR-RES ovarian = tested on: NCI/ADR-RES ovarian
RXF-631 renal = tested on: RXF-631 renal
SNB-78 CNS = tested on: SNB-78 CNS
T-47D breast = tested on: T-47D breast
XF 498 CNS = tested on: XF 498 CNS

Row | Structure (SMILES) | TGI (DLD-1 colon) | TGI (HS 578T breast) | TGI (LXFL 529 NSCLC) | TGI (MDA-N) | TGI (NCI/ADR-RES ovarian) | TGI (RXF-631 renal) | TGI (SNB-78 CNS) | TGI (T-47D breast) | TGI (XF 498 CNS) | GI50 (LXFL 529 NSCLC) | GI50 (SNB-78 CNS)
1 | Cc1nc2c(nc1C)C(=O)c1ccccc1C2=O | 47.9 µM | 6.47 µM | > 58.3 µM | 0.562 µM | 17.1 µM | 46.1 µM | > 94.2 µM | 13.8 µM | – | – | –
2 | CC(=O)OC1COC(n2c(=S)n(-c3ccc(C)cc3)c(=O)c3ccccc32)C(OC(C)=O)C1OC(C)=O (stereo unspecified) | > 100 µM | – | > 100 µM | – | – | > 100 µM | > 100 µM | – | > 100 µM | – | –
3 | Nc1ccc(C(=O)N/C(=C\c2ccc3c(c2)OCO3)c2nc3[nH]c(=S)[nH]c(=O)c3[nH]2)cc1 | > 100 µM | – | > 100 µM | – | – | > 100 µM | > 100 µM | – | > 100 µM | – | –
4 | O=C(N/C(=C\c1cc(Cl)ccc1Cl)c1nc2[nH]c(=S)[nH]c(=O)c2[nH]1)c1ccccc1 | > 64.7 µM | – | 45.2 µM | – | – | > 82.7 µM | > 100 µM | – | > 100 µM | – | –
5 | CC1=C(C(=O)Nc2ccccc2C)C(c2ccco2)C(C(=O)Nc2ccccc2C)=C(C)N1C | > 100 µM | – | > 100 µM | – | – | > 100 µM | > 100 µM | – | > 100 µM | – | –
6 | CCOC(=O)COc1cccc2c1C(=O)CCO2 | > 100 µM | – | > 100 µM | – | – | > 100 µM | > 100 µM | – | > 100 µM | – | –
7 | O=[S@@]1Nc2ccc(Br)cc2S1 | > 100 µM | – | > 100 µM | – | – | > 100 µM | > 100 µM | – | > 100 µM | – | –
8 | CN(CC(=O)O)S(=O)(=O)c1ccc2ccccc2c1 | > 100 µM | – | > 100 µM | – | – | > 100 µM | – | – | > 100 µM | – | –
9 | FC(F)(F)c1ccc(C2SCc3nc4ccccc4n32)cc1 (stereo unspecified) | > 100 µM | – | > 100 µM | – | – | > 100 µM | > 100 µM | – | – | – | –
10 | CC(=O)C(CN(C(C)C)C(C)C)C(c1ccccc1)c1c(O)c2ccccc2oc1=O (stereo unspecified) | > 100 µM | – | > 100 µM | – | – | > 100 µM | > 100 µM | – | – | – | –
11 | CC1(C)COC(c2ccc(C(F)(F)F)cc2C(O)c2ccc3ccccc3c2)=N1 (stereo unspecified) | > 10 µM | – | > 100 µM | – | – | > 100 µM | > 100 µM | – | > 100 µM | > 100 µM | > 10 µM
12 | COc1ccc2nc3cc(Cl)ccc3c(Sc3ccccc3[N+](=O)[O-])c2c1 | > 100 µM | – | > 100 µM | – | – | > 100 µM | > 100 µM | – | 97.8 µM | – | –
13 | COc1cccc(NC(=O)CC(=O)n2nc(C)c(N=Nc3ccccc3)c2C)c1 | > 100 µM | – | > 100 µM | – | – | > 100 µM | > 100 µM | – | > 100 µM | – | –
14 | O=C1C2=C(SCCS2)C(=O)c2ccccc21 | 3.53 µM | – | 3.02 µM | – | – | 3.28 µM | – | – | 3.01 µM | – | –
